Measured values published in paper PMC6262536 (Cells, 2018).

Assays:
Assay in all cases: cells
[1] = system: doxorubicin-resistant subline (LoVo/DX); type: cell-based, human; conditions: 72 h, SRB, mean ± SD
Source text: (§1) The BALB/3T3 cell line was purchased from the American Type Culture Collection (ATCC, Manassas, VA, USA), A549 and MCF-7 cell lines—from European Collection of Authenticated Cell Cultures (Salisbury, UK), LoVo cell line was purchased from the ATCC (ATCC, Manassas, VA, USA), and LoVo/DX by courtesy of Prof. E. Borowski (Technical University of Gdańsk, Gdańsk, Poland). All the cell lines are maintained in the Institute of Immunology and Experimental Therapy (IIET), Wroclaw, Poland. […] Human breast adenocarcinoma cell line was cultured in mixture of Eagle medium (IIET, Wroclaw, Poland), supplemented with 10% fetal bovine serum, 2 mM L-glutamine, 8 μg/mL insulin and 1% amino-acids (Sigma-Aldrich, Merck KGaA, Saint Louis, MO, USA). […] Murine embryonic fibroblast cells were cultured in Dulbecco medium (Life Technologies Limited, Paisley, UK), supplemented with 10% fetal bovine serum (GE Healthcare, Logan, UT, USA) and 2 mM glutamine (Sigma-Aldrich, Merck KGaA, Saint Louis, MO, USA). All culture media contained antibiotics: 100 U/mL penicillin and 100 μg/mL streptomycin (Polfa-Tarchomin, Warsaw, Poland). All cell lines were cultured during entire experiment in humid atmosphere at 37 °C and 5% CO2. […] The procedure is repeated every year or in the case of less frequently used lines: after thawing.
(§2) Twenty-four hours before adding the tested compounds, all cell lines were seeded in 96-well plates (Sarstedt, Nümbrecht, Germany) in appropriate media with 10^4 cells per well. All cell lines were exposed to each tested agent at four different concentrations in the range 100–0.01 μg/mL for 72 h. […] Additionally, all cell lines were exposed to DMSO (solvent used for tested compounds) (POCh, Gliwice, Poland) at concentrations corresponding to those present in tested agents’ dilutions. After 72 h sulforhodamine B assay (SRB) was performed.
(§3) After 72 h of incubation with the tested compounds, cells were fixed in situ by gently adding of 50 μL per well of cold 50% trichloroacetic acid TCA (POCh, Gliwice, Poland) and were incubated at 4 °C for one hour. Following, wells were washed four times with water and air dried. Next, 50 μL of 0.1% solution of sulforhodamine B (Sigma-Aldrich, Merck KGaA, Saint Louis, MO, USA) in 1% acetic acid (POCh, Gliwice, Poland) were added to each well and plates were incubated at room temperature for 0.5 h. After incubation time, unbound dye was removed by washing plates four times with 1% acetic acid whereas stain bound to cells was solubilized with 10 mM Tris base (Sigma-Aldrich, Steinheim, Germany). Absorbance of each solution was read at Synergy H4 Hybrid Multi-Mode Microplate Reader (BioTek Instruments, Inc., Winooski, VT, USA) at the 540 nm wavelength.
(§4) Compounds at each concentration were tested in triplicates in single experiment and each experiment was repeated at least three times independently. The Resistance Index (RI) was defined as the ratio of IC50 for a given compound calculated for resistant cell line to that measured for its parental drug sensitive cell line (Table 1).

[2] = system: human breast adenocarcinoma (MCF-7); type: cell-based; conditions: MCF-7, 72 h, SRB, mean ± SD
Source text: as §1, §2, §3, §4

[3] = system: normal murine embryonic fibroblast cell line (BALB/3T3); type: cell-based; conditions: normal murine fibroblasts BALB/3T3, 72 h, SRB, mean ± SD
Source text: as §1, §2, §3, §4

[4] = system: human lung adenocarcinoma (A549); type: cell-based; conditions: A549, 72 h, SRB, mean ± SD
Source text: as §1, §2, §3, §4

[5] = system: human colon adenocarcinoma cell line (LoVo); type: cell-based; conditions: 72 h, SRB, mean ± SD
Source text: as §1, §2, §3, §4

Row | SMILES | IC50 ([1]; Homo sapiens) [nM] | IC50 ([2]; Homo sapiens, MCF7) [nM] | IC50 ([3]; Mus musculus) [nM] | IC50 ([4]; Homo sapiens) [nM] | IC50 ([5]; Homo sapiens) [nM] | IC50 [1] [nM] | IC50 [2] [nM] | IC50 [3] [nM] | IC50 [4] [nM] | IC50 [5] [nM]
1 | COc1c(Cl)c2c(c(OC)c1OC)-c1ccc(SC)c(=O)cc1[C@@H](NC(C)=O)CC2 [Compound 4] | 111 ± 44 | 22 ± 2 | 22 ± 2 | 22 ± 2 | 22 ± 2 | – | – | – | – | –
2 | COc1c(Cl)c2c(c(OC)c1OC)-c1ccc(OC)c(=O)cc1[C@@H](NC(C)=O)CC2 [Compound 3, 4-chlorocolchicine] | 784 ± 280 | 23 ± 5 | 138 ± 69 | 46 ± 35 | 69 ± 12 | – | – | – | – | –
3 | N.N.[Cl][Pt][Cl] [Cisplatin, reference compound] | – | – | – | – | – | 5700 ± 630 | 10700 ± 753 | 3900 ± 1500 | 6370 ± 1410 | 4370 ± 730
4 | COc1cccc2c1C(=O)c1c(O)c3c(c(O)c1C2=O)C[C@@](O)(C(=O)CO)C[C@@H]3O[C@H]1C[C@H](N)[C@H](O)[C@H](C)O1 [Doxorubicin, reference compound] | 4750 ± 990 | – | 166 ± 74 | 258 ± 44 | – | – | – | – | – | –
5 | COc1c(I)c2c(c(OC)c1OC)-c1ccc(SC)c(=O)cc1[C@@H](NC(C)=O)CC2 [Compound 8, 4-iodothiocolchicine] | 642 ± 84 | 17 ± 6 | 115 ± 44 | 11 ± 2 | 7 ± 2 | – | – | – | – | –
6 | COc1c(I)c2c(c(OC)c1OC)-c1ccc(OC)c(=O)cc1[C@@H](NC(C)=O)CC2 [Compound 7, 4-iodocolchicine] | 2780 ± 450 | 98 ± 29 | 135 ± 56 | 94 ± 6 | 10 ± 2 | – | – | – | – | –
7 | COc1c(Br)c2c(c(OC)c1OC)-c1ccc(OC)c(=O)cc1[C@@H](NC(C)=O)CC2 [Compound 5, 4-bromocolchicine] | 1550 ± 170 | 27 ± 8 | 142 ± 73 | 105 ± 8 | 84 ± 21 | – | – | – | – | –
8 | COc1c(Br)c2c(c(OC)c1OC)-c1ccc(SC)c(=O)cc1[C@@H](NC(C)=O)CC2 [Compound 6, 4-bromothiocolchine] | 135 ± 12 | 15 ± 2 | 103 ± 89 | 10 ± 0.1 | 14 ± 4 | – | – | – | – | –
